Read-outs that look alike come from different tables or passages of the source.
Columns and labels:
[1] = cited from earlier work
human P-gp [2] = target: T1, human P-gp (Homo sapiens, UniProt P08183); details: MDCK-MDR1 cells, same origin; cited from earlier work
T1 construct: host or cells: MDCKII-MDR1 (stably transfected canine kidney cells)

rodent P-gp = tested on: rodent P-gp; parameters: method as in PMID 32856111; details: LLC-PK1-Mdr1a cells; cited from earlier work
[3] = rats, cited from earlier work
P-gp [4] = details: cited from earlier work
[5] = tested on: bovine brain capillary endothelial cells; details: bovine brain capillary endothelial cells on filter inserts, co-culture with glial cells; cited from earlier work
human P-gp [6] = target: T1, human P-gp; assay: Uptake assay in P-gp overexpressing MDCKII-MDR1 cells with radiolabeled substrate and tariquidar; type: cell-based; details: [11C]domperidone as substrate, 30 min incubation, CI95% 198-248 nM, read-out: IC50 of TQD (P-gp inhibition)
Description: Culture media and buffers were obtained from Fischer Scientific, France. Stably transfected MDCKII-MDR1 cells were obtained from Dr. Alfred Schinkel (National Cancer Institute, Amsterdam, The Netherlands) and were grown under a controlled atmosphere at 37 °C, 5% CO2. The culture medium was composed of DMEM Glutamax (Dulbecco’s Modified Eagle Medium, 4.5 g/Ldextrose, 1 mM pyruvate) supplemented with 10% fetal bovine serum and 1% antibiotics (penicillin and streptomycin 5000 U/mL).
Cells were seeded in 24-well plates (30,000 cells per well) in a 500 μL culture medium. Cells were grown to confluence (~2 days). […] Then, 400 μL of cell lysate was collected from each well (n = 4 wells per condition) and gamma counted using a Cobra Quantum (Perkin-Elmer, Villebon-sur-Yvette, France).
Counting values obtained in each well were normalized using Equation (1):(1) I%=R−mRzero/mRmax×100 where I% is the extent of inhibition (I%) between 0 and 100%, R is the radioactivity in the 4 tested wells, mRzero is the mean of the 4 wells without TQD, and mRmax is the difference of means between the 4 wells containing the highest concentration of TQD (800 nM) and the 4 wells without TQD. […]

human P-gp [7] = target: T1, human P-gp; parameters: method as in PMID 34496661; details: cited from earlier work; for IC50: read-out: IC50 of TQD (P-gp inhibition)
[8] = Arterial input function and plasma metabolism of the radiotracer in rats; type: in vivo; details: rat
Description: Blood samples (50 µL) were collected at selected times from the femoral artery to establish total radioactivity kinetics in arterial plasma. Plasma was separated from whole blood by centrifugation (5 min, 2054 g, 4 °C), and 20 µL of plasma and whole blood were counted using a PET cross-calibrated gamma well counter (WIZARD2, PerkinElmer, Villebon-sur-Yvette, France) to obtain the whole-blood and plasma activity curves. All data were corrected for radioactive decay from the injection time. For the larger blood samples, 80 µL plasma was deproteinized with acetonitrile. The supernatant was injected in high-performance liquid chromatography, equipped with an Atlantis® T3 5 μm 10 × 250 mm column (Waters, Guyancourt, France) and an Atlantis® T3 5 μm 19 × 10 mm pre-column (Waters) with an LB-514 radioactivity flow detector (Berthold, France, MX Z100 cell). The mobile phase was composed of water containing 0.1% (v/v) TFA (solvent A) and acetonitrile containing 0.1% (v/v) TFA (solvent B) delivered in a gradient elution mode at a flow rate of 5 mL min^−1: solvent B increased linearly from 20 to 30% from 0 to 9 min.
The method for [^11C]metoclopramide metabolism has been previously reported.

[9] = Brain PET imaging in rats at baseline and after P-gp inhibition with TQD; type: in vivo; details: rat
Description: (§1) PET acquisitions were performed using an Inveon microPET scanner (Siemens, TN, USA). […] Radiotracers were diluted in saline to obtain at least <10% ethanol in the ready-to-inject preparation.
(§2) TQD was used to inhibit P-gp function in rats. TQD was injected in a volume of 200–300 µL into the caudal vein 15 min before radiotracer injection.
(§3) Images were reconstructed with the Fourier rebinning algorithm and the three-dimensional ordered-subset expectation-maximization algorithm, including normalization, attenuation, scatter, and random corrections. Image analysis and quantification of radioactivity uptake were performed using PMOD software (version 3.9; PMOD Technologies, Zurich, Switzerland). A region of interest was drawn over the whole brain to generate time-activity curves (TACs) with time frame durations of 0.25 min, 2 × 0.5 min, 0.75 min, 4 × 1 min, 1.5 min, 4 × 2 min, 3 × 2.5 min, 3 × 3 min, and 3.5 min. Brain radioactivity was corrected for ^11C decay and expressed as the standardized uptake value (SUV) after correction by injected dose and animal weight.
(§4) The mean AUCplasma 20–30 was obtained in each condition to estimate Kp,brain = AUCbrain 20–30/AUCplasma 20–30, considering the mean metabolite-corrected arterial input function. Kp,brain were compared with a two-way ANOVA and a Tukey’s post hoc test using Graphpad Prism software (V8.0, San Diego, CA, USA).

P-gp [10] = assay: as above; type: in vivo; details: brain/plasma, with tariquidar; rat; presence of P-gp inhibition (TQD); newly calculated from published PET data of ref 21, 24
Description: as §1, §2, §3, §4

[11] = parameters: method as in PMID 26585058, PMID 34496661; details: rat; 8 mg/kg tariquidar versus baseline; cited from earlier work
[12] = rat; 60 min post-injection; cited from earlier work

T1 sequence (P08183 whole entry): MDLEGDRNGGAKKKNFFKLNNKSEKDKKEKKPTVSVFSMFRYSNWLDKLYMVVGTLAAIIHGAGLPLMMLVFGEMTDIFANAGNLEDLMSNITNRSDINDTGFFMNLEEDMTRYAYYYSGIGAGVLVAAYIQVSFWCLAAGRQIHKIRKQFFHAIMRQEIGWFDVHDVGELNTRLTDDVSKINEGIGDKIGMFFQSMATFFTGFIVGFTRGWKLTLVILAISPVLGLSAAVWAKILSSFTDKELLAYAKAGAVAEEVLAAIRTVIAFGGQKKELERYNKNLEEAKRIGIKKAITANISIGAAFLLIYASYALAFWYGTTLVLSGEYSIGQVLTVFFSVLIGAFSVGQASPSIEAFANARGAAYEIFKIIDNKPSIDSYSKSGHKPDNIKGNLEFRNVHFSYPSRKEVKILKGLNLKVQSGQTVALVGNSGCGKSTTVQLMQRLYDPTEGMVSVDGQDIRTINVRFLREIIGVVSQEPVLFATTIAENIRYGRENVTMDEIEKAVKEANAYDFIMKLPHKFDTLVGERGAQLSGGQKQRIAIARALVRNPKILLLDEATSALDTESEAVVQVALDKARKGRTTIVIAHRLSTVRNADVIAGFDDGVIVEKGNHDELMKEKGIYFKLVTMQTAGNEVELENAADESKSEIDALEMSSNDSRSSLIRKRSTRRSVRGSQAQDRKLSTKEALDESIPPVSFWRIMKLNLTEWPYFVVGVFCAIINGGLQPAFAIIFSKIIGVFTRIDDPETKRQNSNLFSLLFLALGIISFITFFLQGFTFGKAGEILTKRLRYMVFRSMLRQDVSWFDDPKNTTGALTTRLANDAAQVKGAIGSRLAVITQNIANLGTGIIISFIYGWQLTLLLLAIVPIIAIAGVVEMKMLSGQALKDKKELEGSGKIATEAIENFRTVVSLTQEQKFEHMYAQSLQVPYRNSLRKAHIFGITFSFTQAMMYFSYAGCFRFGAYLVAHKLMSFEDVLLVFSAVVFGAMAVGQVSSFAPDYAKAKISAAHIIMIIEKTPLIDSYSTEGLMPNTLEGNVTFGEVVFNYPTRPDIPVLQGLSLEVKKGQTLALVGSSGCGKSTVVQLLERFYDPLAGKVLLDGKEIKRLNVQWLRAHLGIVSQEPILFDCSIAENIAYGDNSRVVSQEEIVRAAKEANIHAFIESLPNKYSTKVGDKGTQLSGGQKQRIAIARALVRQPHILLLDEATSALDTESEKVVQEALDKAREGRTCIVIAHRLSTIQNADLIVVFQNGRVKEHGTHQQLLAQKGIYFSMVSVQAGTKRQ

CCN(CC)CCNC(=O)c1cc(Cl)c(N)cc1OC [Metoclopramide]
Neurological side effects: Frequent [1]: extrapyramidal signs, parkinsonian syndrome, akathisia | Neurological side effects: Not Frequent [1]: dystonia, dyskinesia, altered consciousness | Neurological side effects: Rare [1]: convulsions | Neurological side effects: Unspecified frequency [1]: late dyskinesia, neuroleptic malignant syndrome | Neurological side effects: Very Frequent [1]: sleepiness | Efflux ratio (human P-gp [2]): 1.4 | Efflux ratio (rodent P-gp): 1.6 | Kp,uu,brain ([3]; another study): 0.235 | Tissue/plasma ratio (Kp,brain) ([3]; ex vivo): 1.72 | Kp,uu,brain [3]: 2.4 | Fold increase in Kp,brain in P-gp deficient mice compared with wild-type mice (P-gp [4]): 6.6 fold | Passage across in vitro BBB model compared with passage across the filter (no BBB) [5]: 100%

COc1cc2c(cc1OC)CN(CCc1ccc(NC(=O)c3cc(OC)c(OC)cc3NC(=O)c3cnc4ccccc4c3)cc1)CC2 [tariquidar, Tariquidar]
IC50 (human P-gp [6]): 221 nM | IC50 (human P-gp [7]; [11C]N-desmethyl-loperramide as substrate probe, same experimental conditions): 19 nM | IC50 (human P-gp [7]; [11C]metoclopramide as substrate, MDCKII-MDR1 cells, CI95% 2-8 nM): 4 nM | IC50 (human P-gp [7]; [11C]verapamil as substrate probe, same experimental conditions): 45 nM

O=c1[nH]c2cc(Cl)ccc2n1C1CCN(CCCn2c3ccccc3[nH][11c]2=O)CC1 [[^11C]domperidone]
Parent (unmetabolized) fraction in plasma ([8]; 60 min post-injection): > 30% | Effect of TQD on the fraction of parent (unmetabolized) radiotracer in plasma ([8]; with versus without TQD): did not impact

CCN(CC)CCNC(=O)c1cc(Cl)c(N)cc1O[11CH3] [[^11C]metoclopramide]
Kp ([9]; brain/plasma, absence of P-gp inhibition, newly calculated from published PET data of ref 21, 24): 10.1 ± 2.01 | Baseline brain exposure (AUCbrain), fold higher compared with [11C]domperidone ([9]; baseline): 2.4 fold | Kp (P-gp [10]): 47 ± 5.52 | Uptake ratio (intracellular radioactivity after complete P-gp inhibition / without inhibition) (human P-gp [7]; MDCKII-MDR1 cells, 200 nM TQD): 1.4 ± 0.07 | Maximal increase in brain exposure [11]: 2.9 fold | Parent (unmetabolized) fraction in plasma [12]: could hardly be detected

Source: publication PMC9412994 (Pharmaceutics, 2022)
